Laboratory results taken from patent publication US4801616A, “Diphenylmethanone compounds and anti-inflammatory use thereof” (Eli Lilly and Company, priority 1986, dated 1989).

Columns and labels:
5-lipoxygenase = biological target: T1, 5-lipoxygenase (Cavia porcellus, UniProt A0A286X958); test: 5-Lipoxygenase (5-LPO) Assay, inhibition of 5-HETE formation in PMNL sonicate supernatant; format: biochemical, guinea pig; details: for inhibition at 30 µg/mL: percent inhibition at 30 μg/ml
T1 construct: incubating 0.2 ml of the supernatant obtained from the PMNL sonicate with the test compound; from tissue; host or cells: casein-elicited guinea pig peritoneal polymorphonuclear leukocytes (PMNL, more than 95 percent of the cells), sonicated, 30,000 x g supernatant
T1 sequence (A0A286X958 1-674): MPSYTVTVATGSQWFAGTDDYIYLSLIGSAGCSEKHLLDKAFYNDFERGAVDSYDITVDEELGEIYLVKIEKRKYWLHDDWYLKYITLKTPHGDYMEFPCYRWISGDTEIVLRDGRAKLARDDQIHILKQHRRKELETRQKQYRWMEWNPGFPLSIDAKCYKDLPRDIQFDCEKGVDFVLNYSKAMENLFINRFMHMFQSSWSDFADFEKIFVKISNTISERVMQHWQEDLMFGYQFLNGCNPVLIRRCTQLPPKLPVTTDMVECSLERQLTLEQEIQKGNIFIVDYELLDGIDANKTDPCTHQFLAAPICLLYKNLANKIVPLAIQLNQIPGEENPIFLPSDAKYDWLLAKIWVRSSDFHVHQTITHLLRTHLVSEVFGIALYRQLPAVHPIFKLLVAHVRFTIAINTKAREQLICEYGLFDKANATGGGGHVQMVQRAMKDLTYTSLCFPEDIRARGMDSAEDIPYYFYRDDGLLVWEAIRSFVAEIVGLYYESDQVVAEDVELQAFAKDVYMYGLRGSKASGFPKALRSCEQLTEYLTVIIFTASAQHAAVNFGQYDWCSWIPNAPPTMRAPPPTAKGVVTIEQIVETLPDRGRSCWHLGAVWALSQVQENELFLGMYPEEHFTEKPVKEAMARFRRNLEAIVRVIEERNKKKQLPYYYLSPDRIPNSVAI
Protocol: 5-Lipoxygenase (5-LPO) Assay
Ten milliliters of a 2% casein solution were injected intraperitoneally into guinea pigs weighing 250-300 gm. After 16-18 hours, the guinea pigs were killed by suffocation in a carbon dioxide chamber. The peritoneal cavity was infused with 70 ml of saline and 40-50 ml of the fluid were recovered from the cavity. After centrifugation, cell pellets were washed twice in Hank's balanced salt solution (HBSS) without calcium ion.
The cells were then suspended in 5 ml of sodium phosphate buffer, pH 7.1 containing 1 mM EDTA, and 0.1% gelatin. About 20-30×10^7 cells were obtained from one guinea pig.
The PMNL suspension was disrupted by five 1/2 second pulse sonications at the setting of 3 in a Branson Sonifier, Model 350, equipped with a microtip. The sonicates were combined and centrifuged at 30,000× g for 10 minutes. The supernatant was kept frozen at -70° C. until use.
Enzyme activity was determined by assaying for 5-HETE formation by first incubating 0.2 ml of the supernatant obtained from the PMNL sonicate with the test compound, 1 mM CaCl2, 2 mM ATP, and 1 mM GSH for 5 minutes at 37° C. The mixture is treated with 5 μM ^14 C-arachidonicacid and incubated at 37° C. an additional 10 minutes. The enzyme reaction was then stopped by the addition of 10 μl of 1M citric acid and 10μl of an alcohol solution containing 20 mg/ml each of indomethacin and butylated hydroxyanisole (BHA). The reaction mixture was spotted (50 μl on a silica gel plate (Baker TLC plate S1250-PA-19C) and subjected to TLC in a solvent system of ethyl acetate/2,2,4-trimethylpentane/glacial acetic acid/water (90:50:20:100).
The radioactivity of the arachidonic acid and its metabolites (5-HETE and LTB4) was visualized from a developed x-ray film which had been exposed to the TLC plate 1-2 days. The amount of 5-HETE formed was quantitated by scraping the silica gel area corresponding to the spot on the x-ray film, and the radioactivity determined in a Isocap/300 liquid scintillation counter (Searle Analytic, Inc.).
The percent inhibition of the formation of 5-HETE was determined for each concentration of test compound tested as compared to a control experiment wherein no test compound was added. The concentration and percent inhibition values were plotted on semi log paper and the concentration in which formation of 5-HETE is inhibited by 50% (IC50) was determined by interpolation.

[1] = biological target: T2, fatty acid cyclooxygenase (Homo sapiens, UniProt P23219); test: Fatty Acid Cyclooxygenase (FCO) Assay, inhibition of PGE2 formation by purified human platelet enzyme; format: biochemical; details: for inhibition at 30 µg/mL: percent inhibition at 30 μg/ml; for IC50: human platelet microsomal enzyme, pH 8.0, 37° C.
T2 construct: The solubilized fatty acid cyclooxygenase was applied to a 440 ml electrofocusing column; from tissue; host or cells: human platelets: microsomes solubilized with Triton X-100, purified by electrofocusing and G-200 Sephadex
T2 sequence (P23219 24-599): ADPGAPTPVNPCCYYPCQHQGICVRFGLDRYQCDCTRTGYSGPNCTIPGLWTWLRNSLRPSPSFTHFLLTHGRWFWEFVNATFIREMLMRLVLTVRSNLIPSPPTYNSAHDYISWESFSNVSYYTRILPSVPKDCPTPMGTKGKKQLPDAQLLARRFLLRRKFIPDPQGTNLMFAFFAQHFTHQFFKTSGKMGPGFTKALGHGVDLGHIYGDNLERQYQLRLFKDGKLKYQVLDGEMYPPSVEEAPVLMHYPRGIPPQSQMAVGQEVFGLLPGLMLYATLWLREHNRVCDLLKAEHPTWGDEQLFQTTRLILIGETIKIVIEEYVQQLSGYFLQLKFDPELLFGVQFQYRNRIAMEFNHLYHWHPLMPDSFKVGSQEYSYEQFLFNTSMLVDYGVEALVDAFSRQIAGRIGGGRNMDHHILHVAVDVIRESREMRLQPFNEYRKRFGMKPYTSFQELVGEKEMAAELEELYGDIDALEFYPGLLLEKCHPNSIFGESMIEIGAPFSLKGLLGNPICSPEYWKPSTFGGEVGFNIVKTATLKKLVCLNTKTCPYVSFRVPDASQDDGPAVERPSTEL
Protocol: Fatty Acid Cyclooxygenase (FCO) Assay
Microsomes were prepared from 185 bags of human platelets (each bag containing the platelets from one pint of blood prepared using differential centrifugation procedures). The platelets from approximately 60 bags were prepared at one time. Platelet-rich plasma (500 g) was centrifuged at 10,000×g for 20 minutes, and the platelet pellet was suspended in 100 ml of 0.1M potassium phosphate buffer, pH 8.0, with a Teflon glass homogenizer and sonicated for 5.0 minutes with a Bronson Sonifier (Model 350) in a rosette flask cooled in ice water. Disrupted platelets were centrifuged 15 minutes at 10,000× g. The supernatant was centrifuged at 100,000× g for 90 minutes and the microsomal pellets were homogenized in 25 ml of 20% sucrose containing 1.0% Triton X-100 detergent. After 30 minutes at 4° C., the solubilized microsomes were centrifuged at 100,000× g for 60 minutes. The yellow supernatant was removed and stored at -70 ° C.
The solubilized fatty acid cyclooxygenase was applied to a 440 ml electrofocusing column (LKB-8012) containing 1% phisolytes (Brinkman Instruments, Westburgh, NY), pH 2-11, with the cathode at the top of the column. The enzyme was layered onto the column at the appropriate time so that its sucrose concentration was equal to that of the column gradient. This was accomplished by checking the gradient concentration periodically with a sucrose hand refractometer. Electrofocusing was carried out for 16 hours with an initial voltage of 400 V and a final voltage of 900-1,000 volts. Fractions were collected (20 ml) and assayed for PGE2 formation. Active peak fractions were pooled and concentrated by ultrafiltration (XM 100A) to a volume of 3-5 ml.
Active fractions from electrofocusing were applied to a G-200 Sephadex column (2 cm×46 cm) and eluted with 10 mM potassium phosphate buffer, pH 7.0, in 5 ml fractions. After assay, active fractions were poored and concentrated to 1.0 ml by ultrafiltration (XM 100A), and kept frozen at -70° C.
Enzyme activity was determined by assaying for PGE2 formation by preincubating the enzyme with 10 mmol/l imidazole phosphate buffer, pH 8.0, 2 mmol/l epinephrine, 2 mmol/l methemoglobin, and the test compound (30 μg/ml) in a total volume of 0.2 ml for one minute at 37° C. After preincubation, 5 mmol/l ^14 C-arachidonic acid were added and the mixture was incubated an additional 0.5 minutes at 37° C. The enzyme reaction was stopped by the addition of 2 μl of indomethacin (2 mg/ml) in alcohol.
The reaction mixture was spotted (50 μl) on a silica gel (LQ6D) plate and subjected to TLC. The solvent system consisted of chloroform-methanol-glacial acetic acid (90:5:5, v/v/v) and the relative mobilities were PGF2α =0.235, and PGE2 =0.47. The silica gel on the plate was scraped in 1 cm sections, suspended in 5 ml of the scintillation fluid [5.88 g of 2,5-diphenyloxazole and 118 mg of 1,4 -bis(5-phenyloxazol-2-yl)benzene] dissolved in 650 ml of toluene and 350 ml of Triton X-100) and the radioactivity was determined in an Isocap/300 liquid scintillation counter (Searle Analytic, Inc., Southfield, Mich.). Another 50 μl of the mixture was added to 10 ml of the Triton X-100 based scintillation fluid, and the radioactivity was determined so that the amount of radioactivity recovery from the TLC plate could be ascertained. PGE2 formation for each test compound was determined as a percent of control experiments wherein no test compound was added. Data is expressed in Table I either as the percent inhibition of formation of PGE2 at a test compound concentration of 30 μ g/ml, or as an IC50 for inhibition of PGE2 formation.

[2] = guinea pig PMNL sonicate supernatant, 37° C., 5 μM 14C-arachidonic acid

Row | IC50 (5-lipoxygenase; [2]) [µM] | inhibition at 30 µg/mL [1] [%] | IC50 [1] [µM] | IC50 5-LPO (inhibition of 5-HETE formation) (5-lipoxygenase; [2]) [µg/mL] | inhibition at 30 µg/mL (5-lipoxygenase) [%] | Compound
1 | 10.5 | 15 |  |  |  | CCCc1c(OCCCc2nnn[nH]2)ccc(C(=O)c2ccccc2O)c1O [Example 27, (2-Hydroxyphenyl)(2-hydroxy-3-propyl-4-[3-(1H-tetrazol-5-yl)propoxy]phenyl)methanone]
2 | 0.954 |  | 17.5 |  |  | CCCc1c(OC)ccc(C(=O)c2ccccc2OC)c1OC [Example 1, (2,4-Dimethoxy-3-propylphenyl)(2-methoxyphenyl)methanone]
3 | 79.1 |  |  |  |  | C=C(c1ccccc1OC)c1ccc(OCCCCC#N)c(CCC)c1OC [Example 20, 5-(3-Methoxy-4-[1-(2-methoxyphenyl)ethenyl]2-propylphenoxy)pentanenitrile]
4 |  |  |  | 8 |  | (2,3-Dihydro-4-hydroxy-2-methyl-7-benzofuranyl)(2-hydroxyphenyl)methanone [Example 8]
5 | 0.524 | 37 |  |  |  | CCCc1c(OCCCCCCC#N)ccc(C(=O)c2ccccc2O)c1O [Example 14, 7-[3-Hydroxy-4-(2-hydroxybenzoyl)-2-propylphenoxy]heptanenitrile]
6 |  | 48 |  |  | 94 | CCCc1c(OCc2ccc(C#N)cc2)ccc(C(=O)c2ccccc2O)c1O [Example 17, 4-([3-Hydroxy-4-(2-hydroxybenzoyl)-2-propylphenoxy]methyl)benzonitrile]
7 | 17.2 | 100 |  |  |  | CCCc1c(O)ccc(C(=O)c2ccccc2Cl)c1O [Example 10, (2-Chlorophenyl)(2,4-dihydroxy-3-propylphenyl)methanone]
8 | 63.6 |  | 17.5 |  |  | CCCc1cc(C(=O)c2ccccc2O)c(O)c(CCC)c1O [Example 7, (2,4-Dihydroxy-3,5-dipropylphenyl)(2-hydroxyphenyl)methanone]
9 | 22.5 |  | 32.1 |  |  | CCCc1c(OCC#N)ccc(C(=O)c2ccccc2O)c1O [Example 12]
10 |  | 0 |  |  | 0 | CCCc1c(OCc2nnn[nH]2)ccc(C(=O)c2ccccc2O)c1O [Example 21, (2-Hydroxyphenyl)[2-hydroxy-3-propyl-4-(1H-tetrazol-5-ylmethoxy)phenyl]methanone]
11 | 1.05 |  | 4.89 |  |  | CCCc1c(OC)ccc(C(=O)c2ccccc2O)c1O [Example 3, (2-Hydroxy-4-methoxy-3-propylphenyl)(2-hydroxyphenyl)methanone]
12 | 9.29 |  | 32.5 |  |  | CCCc1c(OCc2ccc(-c3nnn[nH]3)cc2)ccc(C(=O)c2ccccc2O)c1O [Example 22, (2-Hydroxyphenyl)[2-hydroxy-3-propyl-4([4-(1H-tetrazol-5-yl)phenyl]methoxy)phenyl]methanone]
13 | 26.2 | 9 |  |  |  | CCCc1c(OCCCCC#N)ccc(C(=O)c2ccccc2OC)c1OC [Example 19, 5-[3-Methoxy-4-(2-methoxybenzoyl)-2-propylphenoxy]pentanenitrile]
14 | 17.6 | < 5 |  |  |  | CCCc1c(OCCCCC(=O)N(CC)CC)ccc(C(=O)c2ccccc2OC)c1OC [Example 31, N,N-Diethyl-5-[3-methoxy-4-(2-methoxybenzoyl)-2-propylphenoxy]pentanamide]
15 | 29.2 |  |  |  |  | CCCc1c(OCCCCCc2nnn[nH]2)ccc(C(=O)c2ccccc2O)c1O [Example 24, (2-Hydroxyphenyl)[2-hydroxy-3-propyl-4-([5-(1H-tetrazol-5-yl)pentyl]oxy)phenyl]methanone]
16 | 2.66 |  | 9.32 |  |  | CCCc1c(OC)ccc(C(=O)c2ccccc2O)c1OC [Example 2, (2,4-Dimethoxy-3-propylphenyl)(2-hydroxyphenyl)methanone]
17 | 5.44 | 40 |  |  |  | CCCc1c(OCCCCCC#N)ccc(C(=O)c2ccccc2O)c1O [Example 13, 6-[3-Hydroxy-4-(2-hydroxybenzoyl)-2-propylphenoxy]hexanenitrile]

Row | Compound | IC50 (5-lipoxygenase; [2]) [µM] | inhibition at 30 µg/mL [1] [%] | IC50 [1] [µM] | IC50 5-LPO (inhibition of 5-HETE formation) (5-lipoxygenase; [2]) [µg/mL] | inhibition at 30 µg/mL (5-lipoxygenase) [%]
18 | CCCc1c(OCCCCc2nnnn2C)ccc(C(=O)c2ccccc2OC)c1O [Example 33, (2-Hydroxy-4-[4-(1-methyl-1H-tetrazol-5-yl)butoxy]3-propylphenyl)(2-methoxyphenyl)methanone] | 0.707 | 0 |  |  | 
19 | CCCc1c(OCCCCc2nnn[nH]2)ccc(C(=O)c2ccccc2OC)c1OC [Example 29, (2-Methoxyphenyl)(2-methoxy-3-propyl-4-[4-(1H-tetrazol-5-yl)butoxy]phenyl)methanone] | 14.1 | < 5 |  |  | 
20 | CCCc1c(OCCCCc2nnn(C)n2)ccc(C(=O)c2ccccc2OC)c1O [Example 32, (2-Hydroxy-4-[4-(2-methyl-2H-tetrazol-5yl)butoxy]-3-propylphenyl)(2-methoxyphenyl)methanone] | 0.471 |  |  |  | 
